Assay results published in paper PMC7436000, “The Spectrum of Design Solutions for Improving the Activity-Selectivity Product of Peptide Antibiotics against Multidrug-Resistant Bacteria and Prostate Cancer PC-3 Cells” (Molecules, 2020).
pIC50: −log10 of the molar value. ≈ marks a conversion by molar mass, not a printed value. Where two headings read alike, the source gives them in different places. Peptide text beside a SMILES is read from it.

What was measured:
[1] = test system: human primary dermal fibroblasts; format: cell-based
Description: (§1) Prostate cancer cells were donated by the University of Split, School of Medicine. Cells were cultured in RMPI-1640 medium, supplemented with 10% FBS, 1% Penicillin-Streptomycin, and 1% L-Glutamine. Human dermal fibroblasts were purchased from Biopredic (France) and cultured in DMEM medium, supplemented with 10% FBS and 1% Penicillin-Streptomycin. All cell lines were maintained in a humidified incubator with 5% CO2 at 37 °C. Cells were detached using the trypsin-EDTA solution and sub-cultured (7000 cells/well) in a 96-well plate overnight. Peptide stock solutions were prepared in PBS, and cancer cells were treated with 2-fold serial dilutions for 24 h at 37 °C, with 5% CO2. The toxicity of 6 selected peptides was assessed by a standard MTT assay. Treated cells were incubated with MTT working solution (0.5 mg/mL Thiazolyl Blue Tetrazolium Bromide) for 4 h at 37 °C with 5% CO2. Precipitated formazan was dissolved in 200 µL DMSO and absorbance was measured at 595 nm with EnSight Multimode Plate Reader (PerkinElmer, Inc.)

[2] = test system: PC-3 prostate cancer cell line; format: cell-based, human
Description: as §1

E. coli clin. isolate = format: cell-based, Escherichia coli
Excerpt: (§2) The American Type Culture Collection (ATCC, Rockville, MD, USA) strains and Escherichia coli MG1655 were used as standard bacterial strains. Gram-negative ATCC strains consisted of Escherichia coli (ATCC 25922), Pseudomonas aeruginosa (ATCC 27853), Acinetobacter baumannii (ATCC 19606), and Klebsiella pneumoniae (ATCC 13883). The only Gram-positive standard strain chosen for testing was Staphylococcus aureus (ATCC 29213). Clinical isolates with confirmed multidrug-resistance phenotype were obtained from different wards of the University Hospital Center, Split, Croatia. We described their origin, antibiograms, and resistance phenotype previously. In the same paper, we described the procedure for antimicrobial susceptibility testing on planktonic cells, using the microdilution method in 96-well microtiter plates.
(§3) Briefly, cells were grown on agar plates and a single colony was sampled to generate a liquid culture (LC) grown overnight at 37 °C. The culture was sampled, resuspended in fresh medium, and allowed to grow at 37 °C, until reaching the mid-exponential phase. Lysogeny broth (LB) was used in the case of the E. coli MG1655 cells. Mueller Hinton (MH) medium was used for all other bacterial strains. Serial 2-fold dilutions of the peptide (64 μM to 0.0625 μM) were prepared from peptide stock solution in PBS, and added to a final load of 5 × 10^5 CFU/mL in 100 μL total volume of medium per well in a 96-well plate (Brand 781660). Bacterial cultures were incubated with peptides for 18 h to 24 h at 37 °C. The minimum inhibitory concentration (MIC) was defined as the lowest concentration of the peptide, at which no visible bacterial growth was observed. The MIC for each of the tested peptides was determined in at least three individual assays under the same laboratory conditions. […] At the end of the incubation period for MIC or MBC, the determination of the OD600 was analyzed.

A. baum. clin. isolate = format: cell-based, Acinetobacter baumannii
Excerpt: as §2, §3

[3] = test system: Pseudomonas aeruginosa (ATCC 27853); format: cell-based
Excerpt: as §2, §3

[4] = test system: Escherichia coli (ATCC 25922); format: cell-based
Excerpt: as §2, §3

[5] = test system: Acinetobacter baumannii (ATCC 19606); format: cell-based
Excerpt: as §2, §3

Escherichia coli MG1655 = format: cell-based
Excerpt: as §2, §3

[6] = test system: Klebsiella pneumoniae (ATCC 13883); format: cell-based
Excerpt: as §2, §3

[7] = test system: Staphylococcus aureus (ATCC 29213); format: cell-based
Excerpt: as §2, §3

K. pneum. clin. isolate = format: cell-based, Klebsiella pneumoniae
Excerpt: as §2, §3

P. aerug. clin. isolate = format: cell-based, Pseudomonas aeruginosa
Excerpt: as §2, §3

S. aureus clin. isolate = format: cell-based, Staphylococcus aureus
Excerpt: as §2, §3

human erythrocytes = test: Hemolysis of human erythrocytes; format: cell-based; settings: for HC10: concentration causing 10% hemolysis, 0.2% Triton = 100%; for HC10 / HC20 / HC50: 0.5% RBC in PBS, 1 h, 37 °C, absorbance 450 nm, triplicate; for HC20: concentration causing 20% hemolysis; for HC50: concentration causing 50% hemolysis
Description: Fresh blood was obtained from a healthy donor. Blood was stored in a tube containing EDTA at 4 °C and used within 24 h. Before use, 1 mL of blood was centrifuged (400× g, 10 min), and the supernatant was discarded. Moreover, 500 μL cold PBS with EDTA (1 mM) was added, mixed and centrifuged. The supernatant was discarded. Furthermore, 500 μL of cold PBS with EDTA (1 mM) was added, from which a dilution of 1% blood was made. Peptides were prepared in PBS at a 2 × concentration in 100 µL. […] The suspension was incubated at 37 °C for 1 h and centrifuged at 10,000× g for 5 min. […] After centrifugation, the supernatant was added to a 96-well microtiter plate (150–180 μL), and the absorbance was measured at 450 nm, using EnSight Multimode Plate Reader (PerkinElmer, Inc.). Each measurement was done in triplicate. […] We opted to also include the extrapolated HC50 in our results, to permit comparisons with older toxicity results. However, the HC20 measurements were used for ranking the peptides according to their selectivity and overall performance (Figure 1 and Figure 2 and Table 2).

[8] = multidrug-resistant clinical isolate, broth microdilution, MH medium, 18-24 h, 37 °C
[9] = broth microdilution, MH medium, 5 × 10^5 CFU/mL, 18-24 h, 37 °C

Row | Structure (SMILES) | HC10 (human erythrocytes) | HC20 (human erythrocytes) | HC50 (human erythrocytes) | pIC50 ([1]; 24 h) | (TI/ IC50C) vs. MP1 ([2]; 24 h) | pIC50 ([2]; 24 h) | TI (HC20/IC20C) ([2]; 24 h) | TI (IC50F/IC50C) ([2]; 24 h) | TI/ IC50C ([2]; 24 h) | MIC (E. coli clin. isolate) (E. coli clin. isolate; clin. isolate) | MIC (A. baum. clin. isolate) (A. baum. clin. isolate) | MIC (P. aerug. ATCC 27853) ([3]; ATCC 27853) | MIC (E. coli ATCC 25922) ([4]; ATCC 25922) | MIC (A. baum. ATCC 19606) ([5]; ATCC 19606) | MIC (E. coli MG1655) (Escherichia coli MG1655; MG1655) | MIC (K. pneum. ATCC 13883) ([6]; ATCC 13883) | MIC (S. aureus ATCC 29213) ([7]; ATCC 29213) | MIC (K. pneum. clin. isolate) (K. pneum. clin. isolate) | MIC (P. aerug. clin. isolate) (P. aerug. clin. isolate) | MIC (S. aureus clin. isolate) (S. aureus clin. isolate; clin. isolate) | other results
1 | CC[C@H](C)[C@H](NC(=O)[C@H](CCCCN)NC(=O)[C@H](CCCCN)NC(=O)CNC(=O)[C@@H](NC(=O)[C@@H](N)CCCCN)[C@@H](C)CC)C(=O)N[C@@H](CC(C)C)C(=O)N[C@@H](CCCCN)C(=O)N[C@@H](C)C(=O)N[C@@H](CC(C)C)C(=O)N[C@@H](CCCCN)C(=O)NCC(=O)N[C@@H](C)C(=O)N[C@@H](CC(C)C)C(=O)N[C@@H](CCCCN)C(=O)N[C@@H](CCC(=O)O)C(=O)N[C@@H](CC(C)C)C(=O)N[C@@H](C)C(N)=O [MAPA] (H-KIGKKILKALKGALKELA-NH2) | 1.7 µM | 3 µM | 20 µM |  |  |  |  |  |  |  |  |  |  |  |  |  |  |  |  |  | pIC50 ([1]; MTT assay, 7000 cells/well, 24 h treatment, 37 °C, 5% CO2, absorbance 595 nm, read-out: IC50F (Fibroblasts)): 4.60; pIC50 ([2]; MTT assay, 7000 cells/well, 24 h treatment, 37 °C, 5% CO2, absorbance 595 nm, read-out: IC50C (PC-3)): 5.10; TI (HC20/IC20C) ([2]; human erythrocytes vs PC-3): 1; TI/ IC50C ([2]; performance, product of TI and anticancer activity (1/IC50C)): 0.39; (TI/ IC50C) vs. MP1 ([2]; relative performance with respect to MP1 control peptide): 9.3; TI (IC50F/IC50C) ([2]; therapeutic index, fibroblasts vs PC-3): 3.1; MIC (E. coli clin. isolate) (E. coli clin. isolate; multidrug-resistant clinical isolate, broth microdilution, MH medium, 5 × 10^5 CFU/mL, 18-24 h, 37 °C): 8 to 16 µM; MIC (A. baum. clin. isolate) (A. baum. clin. isolate; [8]): 4 µM (≈ 7.69 µg/mL); MIC (P. aerug. ATCC 27853) [3, 9]: 32 to 64 µM; MIC (E. coli ATCC 25922) ([4]; broth microdilution, MH medium, 5 × 10^5 CFU/mL, 18-24 h, 37 °C, at least three assays): 1 to 2 µM; MIC (A. baum. ATCC 19606) [5, 9]: 1 to 2 µM; MIC (E. coli MG1655) (Escherichia coli MG1655; broth microdilution, LB medium, 5 × 10^5 CFU/mL, 18-24 h, 37 °C, at least three assays): 4 µM (≈ 7.69 µg/mL); MIC (K. pneum. ATCC 13883) [6, 9]: 8 µM (≈ 15.4 µg/mL); MIC (S. aureus ATCC 29213) [7, 9]: 0.5 µM (≈ 0.961 µg/mL); PEa(20) = SI/MIC(aureus) ([7]; overall performance, product of SI (20) and 1/MIC, S. aureus ATCC 29213): 12 µM⁻¹; MIC (K. pneum. clin. isolate) (K. pneum. clin. isolate; [8]): 8 µM (≈ 15.4 µg/mL); MIC (P. aerug. clin. isolate) (P. aerug. clin. isolate; [8]): 32 µM (≈ 61.5 µg/mL); MIC (S. aureus clin. isolate) (S. aureus clin. isolate; [8]): 8 µM (≈ 15.4 µg/mL)
2 | CC[C@H](C)[C@H](NC(=O)[C@H](CCCCN)NC(=O)[C@H](CC(C)C)NC(=O)[C@H](C)NC(=O)[C@H](CCCCN)NC(=O)[C@H](CC(C)C)NC(=O)[C@H](C)NC(=O)[C@@H](NC(=O)[C@H](CCCCN)NC(=O)[C@H](C)NC(=O)[C@@H](NC(=O)[C@@H](N)CCCCN)[C@@H](C)CC)C(C)C)C(=O)N[C@@H](C)C(=O)N[C@@H](CCCCN)C(=O)N[C@H](C(=O)N[C@@H](C)C(=O)N[C@@H](CC(C)C)C(=O)N[C@@H](CCCCN)C(=O)N[C@@H](C)C(=O)N[C@@H](CC(C)C)C(N)=O)C(C)C [PG2] (H-KIAKVALKALKIAKVALKAL-NH2) | 3 µM | 14 µM | 18 µM | 5.00 | 6.8 | 5.22 | 6 | 1.7 | 0.28 | 6 µM (≈ 12.5 µg/mL) | 1.5 to 3 µM | 6 µM (≈ 12.5 µg/mL) | 1.5 µM (≈ 3.13 µg/mL) | 1.5 µM (≈ 3.13 µg/mL) | 16 µM (≈ 33.4 µg/mL) | 3 µM (≈ 6.27 µg/mL) | 0.75 µM (≈ 1.57 µg/mL) | 12 µM (≈ 25.1 µg/mL) | 6 µM (≈ 12.5 µg/mL) | 1.5 µM (≈ 3.13 µg/mL) | 
3 | CC[C@H](C)[C@H](NC(=O)[C@H](CCCNC(=N)N)NC(=O)[C@H](C)NC(=O)[C@H](Cc1ccc(O)cc1)NC(=O)[C@H](CCCNC(=N)N)NC(=O)[C@H](CCCNC(=N)N)NC(=O)[C@H](Cc1c[nH]c2ccccc12)NC(=O)[C@H](Cc1c[nH]cn1)NC(=O)[C@H](Cc1c[nH]cn1)NC(=O)[C@@H](N)CCCNC(=N)N)C(=O)NCC(=O)N[C@@H](Cc1ccccc1)C(=O)N[C@@H](CCCNC(=N)N)C(=O)N[C@@H](C)C(=O)N[C@H](C(=O)N[C@@H](CCCNC(=N)N)C(=O)N[C@H](C(=O)N[C@H](C(=O)N[C@H](C(=O)NCC(=O)N[C@@H](CCCCN)C(N)=O)[C@@H](C)CC)C(C)C)[C@@H](C)O)C(C)C [T2R1] (H-RHHWRRYARIGFRAVRTVIGK-NH2) | 3 µM | 25 µM |  | 4.10 | 30 | 5.10 | 5 | 10 | 1.25 | 4 µM (≈ 10.5 µg/mL) | 8 µM (≈ 21.1 µg/mL) | 1 µM (≈ 2.64 µg/mL) | 1 µM (≈ 2.64 µg/mL) | 2 µM (≈ 5.27 µg/mL) | 4 µM (≈ 10.5 µg/mL) | 2 µM (≈ 5.27 µg/mL) | 0.5 µM (≈ 1.32 µg/mL) | 2 to 4 µM | 8 µM (≈ 21.1 µg/mL) | 4 µM (≈ 10.5 µg/mL) | PEa(20) = SI/MIC(aureus) ([7]; ATCC 29213, 18 h): 100 µM⁻¹; HC50 * (extrapolated) (human erythrocytes; extrapolated, all concentrations tested lysed less than 50% of cells): 7000 * µM
